This assay has as its system Tau (AT100). Put plainly: Phosphorylation of Tau (AT100) in MAP-2 hippocampal neurons injured with Aβ1-42. The assay is classed as cell-based, rat. The following applies: for Area of Tau (AT100)/neurons (% of control): Aβ 1-42 (20 μM) 24 h; for concentration of maximal effect on Tau hyperphosphorylation: Aβ1-42 injured hippocampal neurons. The protocol: The hippocampal neurons were exposed with Aβ solutions (see below) after 17 days of culture. The Aβ1-42 preparation was done following the procedure described by Callizot et al. (2013) J. Neurosci. Res. 91706-716. Briefly, Aβ1-42 peptide was dissolved in the defined culture medium mentioned above, at an initial concentration of 40 μM. This solution was gently agitated for 3 days at 37° C. in the dark and immediately used after being properly diluted in culture medium to the concentrations used (20 μM (plate 1) or 2.5 μM (plate 2) corresponding to 2 μM or 0.25 μM of oligomers (AβO) respectively).
Donecopride fumarate was solved in culture medium and preincubated 1 h before Aβ application. Aβ1-42 preparation was added to a final concentration of 20 or 2.5 μM (=2 μM or 0.25 μM of AβO, evaluated by automatic Western Blot) diluted in control medium in presence of Donecopride.
24 hours after intoxication, the hippocampal neurons were fixed by a cold solution of ethanol (95%) and acetic acid (5%) for 5 min at −20° C. After permeabilization with 0.1% of saponin, cells were incubated for 2 h with:
b) mouse monoclonal antibody anti-phospho Tau (AT100) at dilution of 1/400 in PBS containing 1% fetal calf serum and 0.1% of saponin.
For each condition, 30 pictures (representative of the whole well area) per well were taken using ImageXpress (Molecular Devices) at 20× magnification. All images were taken with the same acquisition parameters. Analyses were performed automatically by using Custom Module Editor (Molecular Devices).
The following endpoints were assessed: • Total number of neurons (neuron survival, number of MAP-2 positive neurons) • Neurite network (in μm of MAP-2 positive neurons) • area of tau in neurons (μm^2, overlapping with MAP-2 positive neurons).
Injury: The hippocampal neurons were exposed with Aβ solutions (see below) after 17 days of culture. The Aβ1-42 preparation was done following the procedure described by Callizot et al. (2013) J. Neurosci. Res. 91:706-716. The batch number of the Aβ1-42 used in this study contains 10% of oligomers (quantification by WB as performed in Combes et al. (2015) J. Neurosci. Res. 93:633-643). Briefly, Aβ1-42 peptide was dissolved in the defined culture medium mentioned above, at an initial concentration of 40 μmol/1. This solution was gently agitated for 3 days at 37° C. in the dark and immediately used after being properly diluted in culture medium to the concentrations used (20 μmol/l or 2.5 μmol/l corresponding to 2 μmol/l or 0.25 μmol/l of oligomers (AβO) respectively). Aβ1-42 preparation was added to a final concentration of 20 or 2.5 μmol/l (respectively 2 μmol/l or 0.25 μmol/l of AβO, determined by automatic WB) diluted in control medium in presence of the compounds.
Immunostaining: MAP-2/AT100—After fixation and permeabilization, cells were incubated for 2 hours with: • a chicken polyclonal antibody anti microtubule-associated-protein 2 (MAP-2) at dilution of 1/1000 in PBS containing 1% fetal calf serum and 0.1% saponin (this antibody stains specifically cell bodies and neurites, allowing study of neuronal cell death and neurite network); and • a mouse monoclonal antibody anti-phospho Tau (AT100) at dilution of 1/100 in PBS containing 1% fetal calf serum and 0.1% saponin.
For each condition, 30 pictures (representative of the whole well area) per well were taken using ImageXpress® (Molecular Devices) with 20× magnification. All images were generated using the same acquisition parameters. From images, analyses were directly and automatically performed by Custom Module Editor® (Molecular Devices). The following read-outs were investigated: • Total number of neurons (neuron survival, number of MAP-2 positive neurons) • Neurite network (in μm of MAP-2 positive neurons) • Area of AT100 (μm^2, overlapping with MAP-2 positive neurons).

Marks after values point to notes of the source that are not given here.

This is an account of results in US20220031680A1, “Donecopride As Neuroprotective Agent In the Treatment of Neurodegenerative Diseases” (priority 2018, published 2022).

Consider `COc1cc2c(cc1OC)C(=O)C(CC1CCN(Cc3ccccc3)CC1)C2` (stereo not shown) [Donepezil, reference compound], for which the “Area of Tau (AT100)/neurons (% of control)” value (“Area of Tau … (% of control)” below) (1 μM) is 151* % of control.
On to `COc1cc(N)c(F)cc1C(=O)CCC1CCN(CC2CCCCC2)CC1` [Flucopride], for which the “concentration of maximal effect on Tau hyperphosphorylation” value was 50 nM.
Turning to `COc1cc(N)c(Cl)cc1C(=O)CCC1CCN(CC2CCCCC2)CC1` [Donecopride], the “Area of Tau … (% of control)” value (1 nM) is recorded as 204 % of control; the “Area of Tau … (% of control)” value (5 nM) is 201 % of control; the “Area of Tau … (% of control)” value (10 nM) was 175 % of control; the “Area of Tau … (% of control)” value (50 nM) is 161* % of control; the “Area of Tau … (% of control)” value (100 nM) was 154* % of control; the “Area of Tau … (% of control)” value (500 nM) is reported as 152* % of control. Further, the “Area of Tau … (% of control)” value (1 μM) is reported as 198 % of control.
In the case of `COc1cc(N)c(F)cc1C(=O)CCC1CCN(CC2CCCC2)CC1` [MR33583], the “concentration of maximal effect on Tau hyperphosphorylation” value lay within 50 to 100 nM.
